Results from ChEMBL document CHEMBL1201862, “PubChem BioAssay data set” (2004).
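Step 1: Grow cells in 96-well plates. Step 2: Expose to compound for 48 hours at 5 concentrations. Step 3: Interpolate endpoints linearly; if unreached, use highest concentration. Here, GI50 denotes the concentration required for 50% inhibition of growth.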 Calls of active or inactive are those of the source. Cut-off read from the data, not from the text of the source: active = GI50 up to about 1.1 µM and inactive = higher.

Experiments:
Test in all cases: inhibition of tumour cell growth, NCI panel, 48 h
A498 = tested on: A498
SF-268 = tested on: SF-268
SNB-19 = tested on: SNB-19
M14 = tested on: M14
SK-MEL-5 = tested on: SK-MEL-5
MCF7 = tested on: MCF7
COLO 205 = tested on: COLO 205
NCI-H522 = tested on: NCI-H522
CCRF-CEM = tested on: CCRF-CEM
UO-31 = tested on: UO-31
MDA-MB-435 = tested on: MDA-MB-435
786-0 = tested on: 786-0
IGROV-1 = tested on: IGROV-1
OVCAR-4 = tested on: OVCAR-4
UACC-62 = tested on: UACC-62
TK-10 = tested on: TK-10
HT-29 = tested on: HT-29
HL-60 = tested on: HL-60
RPMI-8226 = tested on: RPMI-8226
SK-MEL-2 = tested on: SK-MEL-2

SMILES	GI50 (A498)	GI50 (SF-268)	GI50 (SNB-19)	GI50 (M14)	GI50 (SK-MEL-5)	GI50 (MCF7)	GI50 (COLO 205)	GI50 (NCI-H522)	GI50 (CCRF-CEM)	GI50 (UO-31)	GI50 (MDA-MB-435)	GI50 (786-0)	GI50 (IGROV-1)	GI50 (OVCAR-4)	GI50 (UACC-62)	GI50 (TK-10)	GI50 (HT-29)	GI50 (HL-60)	GI50 (RPMI-8226)	GI50 (SK-MEL-2)
Clc1ccc(Nc2ncco2)cc1Cl	> 10 µM (inactive)	> 10 µM (inactive)	> 10 µM (inactive)	> 10 µM (inactive)	> 10 µM (inactive)	> 10 µM (inactive)	> 10 µM (inactive)	> 10 µM (inactive)	> 10 µM (inactive)	> 10 µM (inactive)	> 10 µM (inactive)	> 10 µM (inactive)	> 10 µM (inactive)	> 10 µM (inactive)	> 10 µM (inactive)	> 10 µM (inactive)	> 10 µM (inactive)			
CC(C)C1C(=O)N2CCCC2C2(O)OC(NC(=O)C3C=C4c5cccc6[nH]cc(c56)CC4N(C)C3)(C(C)C)C(=O)N12 (centres undefined)		41.1 µM (inactive)	44.4 µM (inactive)	23.8 µM (inactive)	20.6 µM (inactive)	35.8 µM (inactive)	20.7 µM (inactive)	21 µM (inactive)	24.7 µM (inactive)	13.5 µM (inactive)	29.2 µM (inactive)	17.9 µM (inactive)	14.9 µM (inactive)	18.3 µM (inactive)	18.1 µM (inactive)	21.8 µM (inactive)	18 µM (inactive)	27 µM (inactive)	16.2 µM (inactive)	17.7 µM (inactive)
COCN1C(=O)[C@@H]2CCCN2C(=O)c2cc(N)ccc21	> 100 µM (inactive)	> 100 µM (inactive)	> 100 µM (inactive)	> 100 µM (inactive)		> 100 µM (inactive)	< 0.01 µM (active)	> 100 µM (inactive)		> 100 µM (inactive)	> 100 µM (inactive)	> 100 µM (inactive)	> 100 µM (inactive)	> 100 µM (inactive)	> 100 µM (inactive)	> 100 µM (inactive)	> 100 µM (inactive)			> 100 µM (inactive)
N=C(N)NS(=O)(=O)c1ccc(NC(=O)c2ccc3nc4ccccc4c(O)c3c2)cc1		> 100 µM (inactive)	> 100 µM (inactive)	> 100 µM (inactive)	> 100 µM (inactive)	> 100 µM (inactive)	> 100 µM (inactive)	> 100 µM (inactive)	> 100 µM (inactive)	> 100 µM (inactive)	> 100 µM (inactive)	> 100 µM (inactive)	> 100 µM (inactive)	> 100 µM (inactive)	> 100 µM (inactive)	> 100 µM (inactive)	> 100 µM (inactive)	> 100 µM (inactive)	> 100 µM (inactive)	> 100 µM (inactive)
CC(=O)OCC1OC(n2cnc(C(N)=S)c2N)C(OC(C)=O)C1OC(C)=O (centres undefined)		> 100 µM (inactive)	> 100 µM (inactive)	> 100 µM (inactive)	> 100 µM (inactive)	> 100 µM (inactive)	> 100 µM (inactive)	> 100 µM (inactive)	> 100 µM (inactive)	> 100 µM (inactive)	> 100 µM (inactive)	> 100 µM (inactive)	> 100 µM (inactive)	> 100 µM (inactive)	> 100 µM (inactive)	> 100 µM (inactive)	> 100 µM (inactive)	> 100 µM (inactive)	> 100 µM (inactive)	> 100 µM (inactive)
Clc1cc2nc(C3CCCCO3)[nH]c2cc1Cl (centres undefined)		27.9 µM (inactive)	39.7 µM (inactive)	28.5 µM (inactive)	6.03 µM (inactive)	3.48 µM (inactive)	26 µM (inactive)	2.59 µM (inactive)	35.3 µM (inactive)	11.1 µM (inactive)	7.67 µM (inactive)	34 µM (inactive)	24 µM (inactive)	34.4 µM (inactive)	24.5 µM (inactive)	> 77.3 µM (inactive)	3.5 µM (inactive)	4.78 µM (inactive)	12.8 µM (inactive)	> 100 µM (inactive)
